# Experiments:
# H146 = assay: In vitro anti-proliferation assay (ATPlite) in BCL-XL-dependent small cell lung cancer cell line H146; type: cell-based; conditions: Homo sapiens, NCI-H146; about 72 hours, 5% FBS
# Method: Cell antiproliferation is assayed by PerkinElmer ATPlite™ Luminescence Assay System. Briefly, the various test cancer cell lines are plated at a density of about 1×10^4 cells per well in Costar 96-well plates, and are incubated with different concentrations of compounds for about 72 hours in medium supplemented with 5% FBS. One lyophilized substrate solution vial is then reconstituted by adding 5 mL of substrate buffer solution, and is agitated gently until the solution is homogeneous. About 50 μL of mammalian cell lysis solution is added to 100 μL of cell suspension per well of a microplate, and the plate is shaken for about five minutes in an orbital shaker at ˜700 rpm. This procedure is used to lyse the cells and to stabilize the ATP. Next, 50 μL substrate solution is added to the wells and microplate is shaken for five minutes in an orbital shaker at ˜700 rpm. Finally, the luminescence is measured by a PerkinElmer TopCount® Microplate Scintillation Counter. Such assays, carried out with a range of doses of test compounds, allow the determination of the cellular anti-antiproliferative IC50 of the compounds of the present invention.
# Mcl-1 = Mcl-1 (Homo sapiens (Human), UniProt Q07820); conditions: cited from earlier work
# Mcl-1, sequence (Q07820 whole entry): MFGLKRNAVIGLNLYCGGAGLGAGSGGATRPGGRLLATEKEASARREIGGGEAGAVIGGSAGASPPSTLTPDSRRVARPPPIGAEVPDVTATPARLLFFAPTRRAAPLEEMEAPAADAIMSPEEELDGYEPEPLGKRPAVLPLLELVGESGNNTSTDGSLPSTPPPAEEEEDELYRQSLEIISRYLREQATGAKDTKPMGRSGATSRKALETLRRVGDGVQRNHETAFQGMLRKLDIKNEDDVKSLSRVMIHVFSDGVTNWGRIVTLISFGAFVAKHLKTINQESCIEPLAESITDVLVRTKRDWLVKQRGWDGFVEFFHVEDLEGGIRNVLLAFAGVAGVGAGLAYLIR
# RS4;11 cells = conditions: cited from earlier work
# CLL [1] = conditions: average; read-out: average EC50, apoptosis in CLL; cited from earlier work
# RS4;11 xenografts = conditions: single dose of 100 mg/kg; cited from earlier work
# CLL [2] = conditions: Human Phase I and II; cited from earlier work
smiles,measurement,setting,value
CC1(C)CCC(CN2CCN(c3ccc(C(=O)NS(=O)(=O)c4ccc(NCC5CCOCC5)c([N+](=O)[O-])c4)c(Oc4cnc5[nH]ccc5c4)c3)CC2)=C(c2ccc(Cl)cc2)C1 [ABT-199],IC50,H146,> 2000 nM
same,activity to Mcl-1,Mcl-1,no activity
same,EC50,RS4;11 cells,8 nM
same,EC50,CLL [1],3 nM
same,maximal tumor growth inhibition,RS4;11 xenografts,95%
same,tumor growth delay,RS4;11 xenografts,152%
same,clinical efficacy for CLL,CLL [2],highly efficacious
same,clinical toxicity,CLL [2],lethal tumour lysis syndrome
